Measured values from patent US12161666B2, “Composition comprising cinnamaldehyde and zinc to improve swallowing” (SOCIÉTÉ DES PRODUITS NESTLÉ S.A., priority 2014, dated 2024).

Columns and labels:
[1] = oral administration; cited from earlier work
TRPV1 = TRPV1 (Homo sapiens, UniProt Q8NER1); settings: cited from earlier work
TRPM8 = TRPM8 (Homo sapiens, UniProt Q7Z2W7); settings: cited from earlier work
TRPA1 = TRPA1 (Homo sapiens, UniProt O75762); settings: read-out: EC50 of TRPA1 activation; cited from earlier work
TRPA1, sequence (O75762 whole entry, species assumed): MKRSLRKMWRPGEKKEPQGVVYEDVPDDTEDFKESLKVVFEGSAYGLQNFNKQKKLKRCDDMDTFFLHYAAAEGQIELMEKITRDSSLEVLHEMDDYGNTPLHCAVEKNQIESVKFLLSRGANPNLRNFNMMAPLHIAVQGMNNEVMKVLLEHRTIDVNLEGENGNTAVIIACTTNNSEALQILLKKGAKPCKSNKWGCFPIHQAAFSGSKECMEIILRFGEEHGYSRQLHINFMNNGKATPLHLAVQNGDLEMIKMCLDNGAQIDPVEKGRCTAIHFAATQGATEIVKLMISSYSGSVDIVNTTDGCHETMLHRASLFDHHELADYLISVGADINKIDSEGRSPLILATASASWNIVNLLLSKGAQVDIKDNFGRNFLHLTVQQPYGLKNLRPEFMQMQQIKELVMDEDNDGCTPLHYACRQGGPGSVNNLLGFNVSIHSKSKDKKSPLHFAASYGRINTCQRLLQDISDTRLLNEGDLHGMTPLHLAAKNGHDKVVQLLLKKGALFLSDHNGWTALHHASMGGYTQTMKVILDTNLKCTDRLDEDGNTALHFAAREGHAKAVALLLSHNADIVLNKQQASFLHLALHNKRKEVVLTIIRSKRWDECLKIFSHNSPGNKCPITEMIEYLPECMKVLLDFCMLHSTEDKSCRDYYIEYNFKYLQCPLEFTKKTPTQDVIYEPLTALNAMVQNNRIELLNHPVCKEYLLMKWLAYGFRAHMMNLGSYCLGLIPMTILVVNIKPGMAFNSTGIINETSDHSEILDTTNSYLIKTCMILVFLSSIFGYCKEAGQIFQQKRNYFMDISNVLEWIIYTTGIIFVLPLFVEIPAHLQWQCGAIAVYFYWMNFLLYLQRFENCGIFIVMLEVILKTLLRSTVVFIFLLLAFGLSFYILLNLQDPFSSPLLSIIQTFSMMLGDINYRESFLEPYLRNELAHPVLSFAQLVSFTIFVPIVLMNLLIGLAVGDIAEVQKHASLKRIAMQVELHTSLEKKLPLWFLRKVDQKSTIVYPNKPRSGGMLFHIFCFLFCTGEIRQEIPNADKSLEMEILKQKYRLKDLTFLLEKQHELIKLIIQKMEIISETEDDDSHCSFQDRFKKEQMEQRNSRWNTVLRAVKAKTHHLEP

[2] = target: T1, hTRPA1 expressed in CHO cells (Homo sapiens, UniProt O75762); assay: in vitro activity of hTRPA1 expressed in CHO cells, intracellular calcium measured with a fluorescent dye; type: cell-based; design: efficacy on hTRPA1 according to dose-response curve: dose or concentration left out as unconfirmed
T1 construct: expressed in transfected cells; host or cells: CHO cells
T1 sequence (O75762 whole entry): as the sequence (O75762 whole entry, species assumed) above
Protocol: The in vitro activity of hTRPA1 expressed in CHO cells was measured for 10 μM cinnamaldehyde and 0.3 μM zinc individually, as well as the combination.

TRPV1, sequence (Q8NER1 whole entry, species assumed): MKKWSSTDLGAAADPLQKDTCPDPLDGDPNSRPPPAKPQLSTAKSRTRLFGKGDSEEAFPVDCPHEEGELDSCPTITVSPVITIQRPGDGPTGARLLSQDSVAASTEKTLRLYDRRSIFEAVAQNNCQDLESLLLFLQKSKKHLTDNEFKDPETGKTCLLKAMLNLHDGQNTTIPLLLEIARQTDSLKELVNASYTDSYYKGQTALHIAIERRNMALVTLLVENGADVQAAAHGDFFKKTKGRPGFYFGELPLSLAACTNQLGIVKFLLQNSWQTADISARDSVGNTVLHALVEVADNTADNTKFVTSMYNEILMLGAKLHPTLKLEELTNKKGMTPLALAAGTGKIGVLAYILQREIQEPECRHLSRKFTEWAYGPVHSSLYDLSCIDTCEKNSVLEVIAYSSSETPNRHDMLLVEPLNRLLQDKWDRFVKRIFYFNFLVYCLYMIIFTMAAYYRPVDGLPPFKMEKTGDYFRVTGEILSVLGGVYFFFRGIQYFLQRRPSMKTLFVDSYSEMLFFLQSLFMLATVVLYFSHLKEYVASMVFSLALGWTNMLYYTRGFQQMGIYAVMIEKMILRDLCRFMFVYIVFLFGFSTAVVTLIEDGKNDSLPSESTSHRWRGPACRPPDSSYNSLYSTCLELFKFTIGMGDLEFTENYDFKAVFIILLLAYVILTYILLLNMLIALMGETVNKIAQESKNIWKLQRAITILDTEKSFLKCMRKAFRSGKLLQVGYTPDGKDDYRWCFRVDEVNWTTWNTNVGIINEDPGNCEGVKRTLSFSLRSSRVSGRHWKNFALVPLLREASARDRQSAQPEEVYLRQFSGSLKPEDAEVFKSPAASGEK
TRPM8, sequence (Q7Z2W7 whole entry, species assumed): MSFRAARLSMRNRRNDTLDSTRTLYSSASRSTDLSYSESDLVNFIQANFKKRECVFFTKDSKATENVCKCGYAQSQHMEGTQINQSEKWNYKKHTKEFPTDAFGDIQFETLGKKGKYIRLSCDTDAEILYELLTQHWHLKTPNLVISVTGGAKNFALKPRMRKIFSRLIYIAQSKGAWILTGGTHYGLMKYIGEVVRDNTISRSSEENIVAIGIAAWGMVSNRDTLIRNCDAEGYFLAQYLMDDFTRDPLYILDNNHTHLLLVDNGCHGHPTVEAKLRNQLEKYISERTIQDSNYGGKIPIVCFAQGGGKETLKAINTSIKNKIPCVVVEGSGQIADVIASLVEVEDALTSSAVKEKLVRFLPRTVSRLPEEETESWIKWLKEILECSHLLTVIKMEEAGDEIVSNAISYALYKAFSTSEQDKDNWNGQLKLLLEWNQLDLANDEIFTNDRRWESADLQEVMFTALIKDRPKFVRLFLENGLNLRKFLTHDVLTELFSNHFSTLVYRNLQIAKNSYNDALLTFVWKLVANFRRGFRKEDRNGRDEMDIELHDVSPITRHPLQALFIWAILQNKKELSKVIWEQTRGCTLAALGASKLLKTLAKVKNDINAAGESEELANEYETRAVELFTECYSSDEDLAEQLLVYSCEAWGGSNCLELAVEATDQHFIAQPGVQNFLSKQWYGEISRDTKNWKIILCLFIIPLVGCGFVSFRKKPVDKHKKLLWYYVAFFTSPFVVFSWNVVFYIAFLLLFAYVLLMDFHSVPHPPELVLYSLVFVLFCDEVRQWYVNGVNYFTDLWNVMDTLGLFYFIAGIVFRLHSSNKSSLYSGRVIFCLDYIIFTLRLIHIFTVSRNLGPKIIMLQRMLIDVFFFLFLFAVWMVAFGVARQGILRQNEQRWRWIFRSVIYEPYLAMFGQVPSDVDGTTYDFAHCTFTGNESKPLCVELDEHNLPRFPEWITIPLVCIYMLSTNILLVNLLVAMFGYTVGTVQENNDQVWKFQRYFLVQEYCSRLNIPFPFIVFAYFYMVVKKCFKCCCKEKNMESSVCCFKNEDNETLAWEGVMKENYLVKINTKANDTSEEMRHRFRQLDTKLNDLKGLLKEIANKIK

## COc1cc(CNC(=O)CCCC/C=C/C(C)C)ccc1O [capsaicin]
[1]
  promotion of swallow reflex: shown to promote a swallow reflex

## O=CC=Cc1ccccc1 [cinnamaldehyde]
TRPV1
  activation of TRPV1: not TRPV1
TRPM8
  activation of TRPM8: not TRPV1 or TRPM8
TRPA1
  EC50: ~10 µM
[2]; positive control C+, CHO cells
  efficacy on hTRPA1 according to dose-response curve: maximum efficacy

## zinc
[2]; in vitro
  concentration of zinc required for the synergy with cinnamaldehyde on TRPA1: < 1 µM
